In US20210238192A1, “VASCULAR ADHESION PROTEIN-1 (VAP-1) MODULATORS AND THERAPEUTIC USES THEREOF” (Blade Therapeutics, Inc., priority 2018, published 2021):
Where a name gives a salt, the structure may show the parent alone.

Assays:
Format in all cases: biochemical
Human MAO-B = molecular target: T1, Human MAO-B (Homo sapiens, UniProt P27338); assay: MAO-B inhibition (Amplex Red continuous fluorescence assay); conditions: 30 min pre-incubation at room temp; substrate benzylamine; read-out: Human MAO-B IC50
T1 sequence (P27338 1-520): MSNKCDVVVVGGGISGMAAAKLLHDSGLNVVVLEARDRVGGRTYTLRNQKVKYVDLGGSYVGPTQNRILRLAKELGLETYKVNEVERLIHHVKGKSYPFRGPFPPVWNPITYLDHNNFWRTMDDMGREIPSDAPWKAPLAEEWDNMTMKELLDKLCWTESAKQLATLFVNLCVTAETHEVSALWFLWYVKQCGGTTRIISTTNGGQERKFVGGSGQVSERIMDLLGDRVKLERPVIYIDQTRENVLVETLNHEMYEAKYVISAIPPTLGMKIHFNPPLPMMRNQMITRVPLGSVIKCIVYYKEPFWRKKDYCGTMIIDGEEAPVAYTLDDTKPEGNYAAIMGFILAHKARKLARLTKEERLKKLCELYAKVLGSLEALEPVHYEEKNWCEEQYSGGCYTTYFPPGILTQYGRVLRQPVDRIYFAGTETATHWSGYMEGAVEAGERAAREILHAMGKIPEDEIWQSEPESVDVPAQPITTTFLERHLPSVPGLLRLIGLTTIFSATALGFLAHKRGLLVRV
Description: (§1) VAP-1, DAO, MAO-A, MAO-B, and HRP activity and inhibition thereof was assessed by means of a continuous fluorescence assay. The Amplex Red Hydrogen Peroxide/Peroxidase Assay (ThermoFisher) was optimized for detecting amine oxidase (AO) activity. In an enzyme-coupled reaction, the H2O2 generated by AO reacts 1:1 with Amplex Red reagent to produce fluorescent product resorufin.
(§2) Assays were typically setup in black 384-well plates using automated liquid handling as follows. VAP-1/MAO assay buffer contains […] sodium phosphate, pH 7.4; DAO assay buffer contains 50 mM HEPES, pH 7.5; HRP assay buffer contains 100 mM CHES, 1 mM MgCl2, 50 mM NaCl, 0.05% BSA, pH 9.0. Inhibitors were serially diluted in DMSO and used to setup 2× mixtures with AO in the aforementioned buffer. After 30 min pre-incubation at 37° C. (VAP-1, HRP) or room temp (DAO, MAO), the reaction was initiated by adding a 2× mix of Amplex Red, HRP (coupling enzyme), and substrate (benzylamine, histamine, tyramine, benzylamine, H2O2, for VAP-1, DAO, MAO-A, MAO-B, and HR, respectively) in the same buffer. Reaction progress curve data were typically collected for 5 min using excitation/emission wavelengths of 510 nm/565 nm on FLIPR-Tetra plate readers (Molecular Devices Inc). Reaction rates were calculated from progress curve slopes typically over 60-150 sec. Dose response curves (rate vs. log inhibitor concentration) were typically fit to a 4-parameter logistic function to extract IC50 values.

Human VAP-1 = molecular target: T2, Human VAP-1 (Homo sapiens, UniProt Q16853); assay: VAP-1 inhibition assay (Amplex Red continuous fluorescence assay); conditions: 30 min pre-incubation at 37° C.; substrate benzylamine; read-out: Human VAP-1 IC50
T2 sequence (Q16853 1-763): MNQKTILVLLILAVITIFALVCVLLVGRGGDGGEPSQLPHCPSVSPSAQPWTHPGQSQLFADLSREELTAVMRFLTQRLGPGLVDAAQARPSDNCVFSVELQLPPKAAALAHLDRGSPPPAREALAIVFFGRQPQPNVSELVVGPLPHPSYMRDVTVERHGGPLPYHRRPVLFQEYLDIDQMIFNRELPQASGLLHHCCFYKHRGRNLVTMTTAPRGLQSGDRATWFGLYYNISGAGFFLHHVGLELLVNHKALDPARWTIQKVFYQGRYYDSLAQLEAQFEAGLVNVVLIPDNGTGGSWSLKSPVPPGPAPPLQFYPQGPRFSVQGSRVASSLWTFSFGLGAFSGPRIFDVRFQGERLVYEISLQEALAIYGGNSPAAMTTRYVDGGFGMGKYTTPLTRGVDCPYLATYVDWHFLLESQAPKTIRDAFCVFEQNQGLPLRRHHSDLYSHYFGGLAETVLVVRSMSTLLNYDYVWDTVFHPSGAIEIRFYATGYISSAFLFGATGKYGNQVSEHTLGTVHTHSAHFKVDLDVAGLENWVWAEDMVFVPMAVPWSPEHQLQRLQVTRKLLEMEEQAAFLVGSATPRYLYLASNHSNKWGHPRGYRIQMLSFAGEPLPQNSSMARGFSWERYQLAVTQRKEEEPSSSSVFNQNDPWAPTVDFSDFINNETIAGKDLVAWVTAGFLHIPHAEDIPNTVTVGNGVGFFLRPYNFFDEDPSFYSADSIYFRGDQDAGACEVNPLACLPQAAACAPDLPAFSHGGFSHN
Description: as §1, §2

Human DAO = molecular target: T3, Human DAO (Homo sapiens, UniProt P19801); assay: DAO inhibition (Amplex Red continuous fluorescence assay); conditions: 30 min pre-incubation at room temp; substrate histamine; read-out: Human DAO IC50
T3 sequence (P19801 20-751): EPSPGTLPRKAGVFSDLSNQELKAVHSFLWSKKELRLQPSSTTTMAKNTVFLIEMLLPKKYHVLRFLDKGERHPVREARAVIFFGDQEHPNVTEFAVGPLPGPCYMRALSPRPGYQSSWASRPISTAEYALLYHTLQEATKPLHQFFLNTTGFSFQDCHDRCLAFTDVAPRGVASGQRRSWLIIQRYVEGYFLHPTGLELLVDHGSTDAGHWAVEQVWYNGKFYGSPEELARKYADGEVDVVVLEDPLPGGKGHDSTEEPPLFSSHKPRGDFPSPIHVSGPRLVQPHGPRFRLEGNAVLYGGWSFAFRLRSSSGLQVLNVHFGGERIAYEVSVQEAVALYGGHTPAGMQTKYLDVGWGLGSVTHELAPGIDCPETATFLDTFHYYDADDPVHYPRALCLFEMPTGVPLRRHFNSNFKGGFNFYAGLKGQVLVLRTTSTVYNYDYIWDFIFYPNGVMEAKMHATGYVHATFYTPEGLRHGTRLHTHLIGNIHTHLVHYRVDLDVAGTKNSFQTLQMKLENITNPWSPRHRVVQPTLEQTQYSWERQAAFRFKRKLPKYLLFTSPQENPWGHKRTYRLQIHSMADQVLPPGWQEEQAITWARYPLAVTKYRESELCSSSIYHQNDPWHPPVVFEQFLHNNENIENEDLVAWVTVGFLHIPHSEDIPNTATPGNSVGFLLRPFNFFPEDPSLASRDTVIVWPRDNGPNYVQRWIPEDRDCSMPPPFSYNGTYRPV
Description: as §1, §2

Human MAO-A = molecular target: T4, Human MAO-A (Homo sapiens, UniProt P21397); assay: MAO-A inhibition (Amplex Red continuous fluorescence assay); conditions: 30 min pre-incubation at room temp; substrate tyramine; read-out: Human MAO-A IC50
T4 sequence (P21397 1-527): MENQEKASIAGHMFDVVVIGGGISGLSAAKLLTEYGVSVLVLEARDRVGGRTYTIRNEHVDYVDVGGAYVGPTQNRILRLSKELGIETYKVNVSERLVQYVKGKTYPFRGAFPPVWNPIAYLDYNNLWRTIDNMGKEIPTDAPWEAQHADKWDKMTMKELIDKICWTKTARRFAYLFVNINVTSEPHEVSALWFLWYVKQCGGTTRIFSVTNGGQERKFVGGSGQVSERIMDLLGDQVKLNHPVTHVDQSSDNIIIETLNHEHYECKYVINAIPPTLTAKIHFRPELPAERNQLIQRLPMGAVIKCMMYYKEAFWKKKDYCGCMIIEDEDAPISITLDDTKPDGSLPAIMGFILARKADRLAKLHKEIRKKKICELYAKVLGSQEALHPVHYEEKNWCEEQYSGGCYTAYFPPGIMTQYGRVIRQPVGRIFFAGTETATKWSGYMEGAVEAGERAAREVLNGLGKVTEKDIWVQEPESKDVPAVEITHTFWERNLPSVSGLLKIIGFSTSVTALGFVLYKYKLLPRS
Description: as §1, §2

Row | SMILES | IC50 (Human MAO-B) | IC50 (Human VAP-1) | IC50 (Human DAO) | IC50 (Human MAO-A)
1 | CCNC(=O)N(C)c1ccc(OC/C(=C/F)CN)cc1 [Compound 23, (E)-1-(4-((2-(aminomethyl)-3-fluoroalkyl)oxy)phenyl)-3-ethyl-1-methylurea hydrochloride] | 3 to 10 µM | < 3 µM | > 10 µM | > 10 µM
2 | Cn1nccc1-c1ccc(OC/C(=C/F)CN)cc1 [Compound 48, (E)-3-fluoro-2-((4-(1-methyl-1H-pyrazol-5-yl)phenoxy)methyl)prop-2-en-1-amine hydrochloride] | < 3 µM | < 3 µM | < 3 µM | > 10 µM
3 | NCC(=CF)COc1ccc(-c2cnn[nH]2)cc1 [Compound 60] | < 3 µM | < 3 µM | < 3 µM | < 3 µM
4 | NC/C(=C\F)COc1ccc(C(=O)NCCOCCOCCOCCNC(=O)CCCCC2SCC3NC(=O)NC32)cc1 (stereo not drawn) [Compound 77, (E)-4-((2-(aminomethyl)-3-fluoroalkyl)oxy)-N-(13-oxo-17-(2-oxohexahydro-1H-thieno[3,4-d]imidazol-4-yl)-3,6,9-trioxa-12-azaheptadecyl)benzamide] | 3 to 10 µM |  | < 3 µM | > 10 µM
5 | CC(C)(C)NC(=O)c1ccc(NC/C(=C\F)CN)cc1 [Compound 46, (Z)-4-((2-(aminomethyl)-3-fluoroalkyl)amino)-N-(tert-butyl)benzamide hydrochloride] | < 3 µM | < 3 µM | 3 to 10 µM | > 10 µM
6 | CCNC(=O)Oc1ccc(OC/C(=C\F)CN)cc1 [Compound 56, (Z)-4-((2-(aminomethyl)-3-fluoroalkyl)oxy)phenyl ethylcarbamate] | < 3 µM | < 3 µM | < 3 µM | < 3 µM
7 | CC(C)(C)NC(=O)c1cccc2c1ccn2CC(=CF)CN [Compound 69, 1-(2-(aminomethyl)-3-fluoroalkyl)-N-(tert-butyl)-1H-indole-4-carboxamide] | < 3 µM | < 3 µM | > 10 µM | > 10 µM
8 | Cn1ccnc1-c1ccc(OC/C(=C/F)CN)cc1 [Compound 27, (E)-3-fluoro-2-((4-(1-methyl-1H-imidazol-2-yl)phenoxy)methyl)prop-2-en-1-aminedihydrochloride] | < 3 µM | < 3 µM |  | > 10 µM
9 | NC/C(=C\F)COc1ccc(C(=O)NCCCCCNC(=O)CCCCC2SCC3NC(=O)NC32)cc1 (stereo not drawn) [Compound 76, (E)-4-((2-(aminomethyl)-3-fluoroalkyl)oxy)-N-(5-(5-(2-oxohexahydro-1H-thieno[3,4-d]imidazol-4-yl)pentanamido)pentyl)benzamide] | < 3 µM |  | < 3 µM | > 10 µM
10 | CC(=O)N(C/C(=C/F)CN)c1ccccc1 [Compound 1, (E)-N-(2-(aminomethyl)-3-fluoroalkyl)-N-phenylacetamide hydrochloride] | > 10 µM | > 10 µM |  | > 10 µM
11 | CC(=O)N(CC(=CF)CN)Cc1ccccc1 [Compound 32] | > 10 µM | > 10 µM |  | > 10 µM

Results, then the molecule that gave them:

Row | IC50 (Human MAO-B) | IC50 (Human VAP-1) | IC50 (Human DAO) | IC50 (Human MAO-A) | SMILES
12 | > 10 µM | < 3 µM | < 3 µM | < 3 µM | NC/C(=C/F)CNC(=O)Nc1ccccc1 [Compound 72]
13 | > 10 µM | < 3 µM | > 10 µM | 3 to 10 µM | NC/C(=C\F)CNC(=O)c1ccccc1 [Compound 21, (E)-N-(2-(aminomethyl)-3-fluoroalkyl)benzamide hydrochloride]
14 | < 3 µM | < 3 µM | > 10 µM | 3 to 10 µM | NC/C(=C/F)COc1cccc2scnc12 [Compound 9, (Z)-2-((benzo[d]thiazol-4-yloxy)methyl)-3-fluoroprop-2-en-1-amine hydrochloride]
15 | 3 to 10 µM | > 10 µM |  | > 10 µM | NC/C(=C\F)CNC1CCCCC1 [Compound 22, (E)-N1-cyclohexyl-2-(fluoromethylene)propane-1,3-diamine]
16 | > 10 µM | > 10 µM |  | > 10 µM | CC(=O)N(CC(=CF)CN)C1CCCCC1 (mixture of isomers) [Compound 31, hydrochloride]
17 | > 10 µM | > 10 µM |  | > 10 µM | NCC(=CF)CN1CCCCC1 (mixture of isomers) [Compound 12, 3-fluoro-2-(piperidin-1-ylmethyl)prop-2-en-1-amine]
18 | > 10 µM | 3 to 10 µM |  | > 10 µM | NC/C(=C\F)CNS(=O)(=O)c1ccccc1 [Compound 17, (E)-N-(2-(aminomethyl)-3-fluoroalkyl)benzenesulfonamide hydrochloride]
19 | > 10 µM | 3 to 10 µM |  | > 10 µM | NC/C(=C\F)COc1cccc2[nH]cnc12 [Compound 2, hydrochloride]
